Test results reported in publication PMC12655733, “Design, Synthesis and Evaluation of the First 2-Alkynyl(aza)indole ^18F Probe Targeting α-Synuclein Aggregates” (Pharmaceuticals, 2025).

Tests used:
[1] = target: T1, Aβ1-42 fibrils (Homo sapiens, UniProt P05067); experiment: Inhibition of thioflavin T binding to Aβ1-42 fibrils (fluorescence competition), Ki determination; conditions: calculated from IC50, competition with ThT 500 nM, fibrils 500 nM, mean ± SD of 3 experiments; read-out: Ki Aβ
T1 construct: Wild-type α-syn and Aβ1-42 were expressed; made in house; host or cells: Escherichia coli BL21(DE3)
Description: (§1) Wild-type α-syn and Aβ1-42 were expressed in the Escherichia coli strain BL21(DE3) (Stratagene, La Jolla, CA, USA) and purified as described. […] For the Aβ1-42 peptide, the concentration was determined by a fluorometric method using the reactive compound fluorescamine (Sigma, San Jose, CA, USA) that reacts with primary amino groups to form a fluorescent product. The human Tau protein (isoform h2N4RTau) was expressed in the pET11d vector in the Escherichia coli strain BL21(DE3) (Stratagene, La Jolla, CA, USA) and purified as described.
(§2) For assembly into fibrils, α-syn was incubated in 50 mM Tris-HCl, pH 7.5, 150 mM KCl at 37 °C under continuous shaking for 4 days. Lyophilized Aβ1-42 was dissolved in 1,1,1,3,3,3-hexafluoro-2-propanol (HFIP) at a concentration of 0.2 mg/mL and incubated for 24 h at 37 °C to achieve complete solubilization. HFIP was evaporated under a nitrogen stream to obtain a dry film. To start assembly into fibrils, the dry peptide was resuspended in PBS pH 7.4, 10% (v/v) DMSO and incubated at 37 °C without shaking for 3 days. The Tau protein was assembled in fibrils in a PBS buffer containing 1 mM of DTT in the presence of 1/12 heparin (v/v) at 37 °C under shaking. […] Protein fibrils were systematically examined by transmission electron microscopy (TEM) in a Jeol 1400 transmission electron microscope following adsorption onto carbon-coated 200 mesh grids and negative staining with 1% uranyl acetate. The images were recorded with a Gatan Orius CCD camera (Gatan, Pleasanton, CA, USA). Finally, the percentage of α-syn or Aβ1-42 aggregated into fibrils was assessed by pelleting fibrils at 40,000× g for 20 min and by determining the concentration of soluble protein/peptide remaining in the supernatant.
(§3) The samples were incubated for 1 h at room temperature to achieve complete equilibration.

[2] = target: T2, Tau fibrils (isoform h2N4RTau) (Homo sapiens, UniProt P10636); experiment: Direct fluorescence titration on Tau fibrils: Kd and Bmax; format: binding
T2 construct: made in house; host or cells: Escherichia coli BL21(DE3), pET11d vector
Text: (§4) In view of the interesting properties of compounds 33–39, we decided to switch to azaindole structures and to study the impact of the position of the nitrogen atom in the 6-membered ring on binding to fibrils. At this step we measured, in addition to the Ki values, the direct binding of each compound to fibrils through the fluorescence in the fraction bound to fibrils, which allowed us to determine the affinity values (Kd, Table 1). […] We therefore prepared a fluorinated derivative of compound 43, i.e., 45.
(§5) Fresh solutions of each tested compound (2.5 mM in DMSO) were diluted in PBS pH 7.4 at concentrations ranging from 0.5 nM to 5 µM in the presence or absence of α-syn, Aβ1-42, or Tau fibrils (200 nM, 500 nM, or 200 nM, respectively) in a final volume of 2 mL. After 1 h incubation at room temperature, the binding of each compound to α-syn, Aβ1-42, or Tau fibrils was assessed by fluorescence measurements using the appropriate excitation/emission wavelengths (i.e., those yielding the highest fluorescence ratio between fibril-bound and free compound). For any given concentration of compound added to the fibrils, the concentrations of compound bound to the fibrils and free in solution were determined on the basis of the measured fluorescence. Since at each point of the titration: Fm = FB × B + FF × (T − B) where Fm is the measured fluorescence of the compound in the presence of fibrils at a given compound concentration T, FB is the specific molar fluorescence of the bound compound, FF is the specific molar fluorescence of the free compound, and B is the concentration of compound bound to the fibrils at any point of the titration. FF was determined by measuring the fluorescence of known compound concentrations in the absence of fibrils. FB was determined by measuring the maximum fluorescence of known compound concentrations upon saturation with α-syn, Aβ1-42, or Tau fibrils.
(§6) Therefore, at each point of the titration, the concentration of bound compound B could be determined and was B = (Fm − FF × T)/FB − FF. The B values thus determined versus the respective concentrations of free compound were analyzed by fitting to the Michaelis-Menten equation.

[3] = target: T3, α-syn fibrils (Homo sapiens, UniProt P37840); experiment: Direct fluorescence titration on α-syn fibrils: Kd and Bmax; format: binding
T3 construct: made in house; host or cells: Escherichia coli BL21(DE3)
Text: as §4, §5, §6

[4] = target: T1, Aβ1-42 fibrils; experiment: Direct fluorescence titration on Aβ1-42 fibrils: Kd and Bmax; format: binding; conditions: for Kd: direct assay on fibrils, mean ± SD of 3 experiments, read-out: Kd Aβ
Text: as §4, §5, §6

[5] = test system: Aβ1-42 fibrils; experiment: as above; format: binding; conditions: from Kd values
Text: as §4, §5, §6

[6] = target: T2, Tau fibrils (isoform h2N4RTau); experiment: Inhibition of thioflavin T binding to Tau fibrils (fluorescence competition), Ki determination; conditions: calculated from IC50, competition with ThT 500 nM, fibrils 200 nM, mean ± SD of 3 experiments
Description: as §1, §2, §3

[7] = target: T3, α-syn fibrils; experiment: Inhibition of thioflavin T binding to α-syn fibrils (fluorescence competition), Ki determination; conditions: calculated from IC50, competition with ThT 500 nM, fibrils 200 nM, mean ± SD of 3 experiments
Description: as §1, §2, §3

[8] = Octanol–water partition coefficient at pH 7.4 (LogD); format: physicochemical; conditions: pH 7.4, mean ± SD on three independent experiments
[9] = target: α-syn in MSA tissues; parameters: method as in PMID 38352848; conditions: cited from earlier work
[10] = direct assay on fibrils, mean ± SD of 3 experiments
[11] = density of binding sites, Scatchard analysis

T2 sequence (P10636 1-441 isoform P10636-8): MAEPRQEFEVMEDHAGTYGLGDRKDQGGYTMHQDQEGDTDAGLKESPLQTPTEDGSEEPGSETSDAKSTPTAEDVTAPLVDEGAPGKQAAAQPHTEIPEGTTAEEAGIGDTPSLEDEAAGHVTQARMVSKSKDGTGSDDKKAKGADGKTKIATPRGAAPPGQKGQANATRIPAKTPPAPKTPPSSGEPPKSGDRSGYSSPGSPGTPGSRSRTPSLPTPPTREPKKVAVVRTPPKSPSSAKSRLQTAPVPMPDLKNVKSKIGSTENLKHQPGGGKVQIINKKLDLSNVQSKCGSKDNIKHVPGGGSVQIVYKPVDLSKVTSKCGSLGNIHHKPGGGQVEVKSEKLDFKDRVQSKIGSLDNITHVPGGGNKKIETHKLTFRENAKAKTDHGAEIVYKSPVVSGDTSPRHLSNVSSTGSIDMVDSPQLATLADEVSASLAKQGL
T1 sequence (P05067 672-713): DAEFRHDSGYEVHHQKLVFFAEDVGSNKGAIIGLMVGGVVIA

SMILES | Ki [1] | Kd [2, 10] | Kd Tau [2, 10] | Kd [3, 10] | Kd α-Syn [3, 10] | Kd [4] | reduction of affinity for Aβ versus α-syn and tau fibrils [5] | Ki [6] | Ki [7] | tau monomers per 1 compound bound ([2]; corresponding to Bmax) | Bmax on tau fibrils [2, 11] | α-syn monomers per 1 compound bound ([3]; corresponding to Bmax) | Bmax on α-syn fibrils [3, 11] | Aβ monomers per 1 compound bound ([4]; corresponding to Bmax) | Bmax on Aβ fibrils [4, 11] | logD [8] | Kd [9]
CN(C)c1ccc(C#Cc2cc3cccnc3[nH]2)cc1 [Compound 43] | 24.4 ± 9 nM | 0.44 ± 0.1 nM | sub-nanomolar | 0.53 ± 0.2 nM | sub-nanomolar | 11.8 ± 3 nM | 20 fold | 4.61 ± 0.2 nM | 4.7 ± 2 nM | – | – | – | – | – | – | – | –
CN(CCF)c1ccc(C#Cc2cc3cccnc3[nH]2)cc1 [Compound 45] | – | 0.97 ± 0.4 nM | – | 2.4 ± 1 nM | – | 1.2 ± 1 nM | – | – | – | 20 tau monomers | 46.6 ± 5.0 nmol/µmol tau fibrils | 7 α-syn monomers | 141.1 ± 45 nmol/µmol α-syn fibrils | 600 Aβ monomers | 1.8 ± 0.6 nmol/µmol Aβ fibrils | 2.59 ± 0.141 | –
O=C1c2cn(-c3ccc(N4CC[C@@H]([18F])C4)nc3)nc2CN1c1cccnc1 [[^18F] ACI-12589] | – | – | – | – | – | – | – | – | – | – | – | – | – | – | – | – | 22 to 30 nM
